According to ChEMBL document CHEMBL6177933, “Discovery of Sophoridine α-Aryl Propionamide Derivative ZM600 as a Novel Antihepatic Fibrosis Agent” (J Med Chem, 2024):
The source made the active and inactive calls. No cut-off for these calls is given here.

Legend:
[1] = test system: RAW264.7; assay: Inhibition of LPS-induced NFkappaB transcriptional activity in mouse RAW264.7 cells at 10 uM preincubated for 2 hrs followed by LPS stimulation and measured after 6 hrs by luciferase reporter gene assay relative to control; assay type: cell-based; settings: time 8.0 hrs
[2] = test system: RAW264.7; assay: Inhibition of LPS-induced NFkappaB transcriptional activity in mouse RAW264.7 cells at 5 uM preincubated for 2 hrs followed by LPS stimulation and measured after 6 hrs by luciferase reporter gene assay relative to control; assay type: cell-based; settings: time 8.0 hrs
[3] = test system: Mus musculus; assay: Antifibrotic activity against BDL-induced C57BL/6J mouse hepatic fibrosis model assessed as improvement in histological changes at 15 to 30 mg/kg, po administered via gavage starting from 3 days post-BDL by H and E staining based assay; assay type: functional, organism-based; settings: dose 15-30 mg/kg
[4] = molecular target: MAP kinase p38 (Homo sapiens) (UniProt O15264+Q15759+Q16539+P53778); assay: Inhibition of TGFbeta1-induced p38 phosphorylation in human LX-2 cells at 5 to 20 uM preincubated for 2 hrs followed by […] stimulation and measured after 2 hrs by Western blot analysis; assay type: cell-based; settings: dose 5-20 µM, time 4.0 hrs
[5] = test system: Mus musculus; assay: In vivo inhibition of AKT phosphorylation in BDL-induced C57BL/6J mouse hepatic fibrosis model at 15 to 30 mg/kg, po administered via gavage starting from 3 days post-BDL by Western blot analysis; assay type: functional, organism-based; settings: dose 15-30 mg/kg
[6] = test system: Mus musculus; assay: Antifibrotic activity against BDL-induced C57BL/6J mouse hepatic fibrosis model assessed as improvement in histological changes at 15 to 30 mg/kg, po administered via gavage starting from 3 days post-BDL; assay type: functional, organism-based; settings: dose 15-30 mg/kg
[7] = test system: Mus musculus; assay: In vivo inhibition of p38 phosphorylation in CCL4-induced C57BL/6J mouse hepatic fibrosis model at 15 to 30 mg/kg, po administered via gavage for 4 weeks starting from 5th week of CCL4 stimulation by Western blot analysis; assay type: functional, organism-based; settings: dose 15-30 mg/kg
[8] = Cytotoxicity against human LX-2 cells assessed as reduction in cell viability measured after 48 hrs by CCK-8 assay; assay type: toxicity, cell-based
[9] = test system: LX-2; assay: Inhibition of FBS-induced cell migration in human LX-2 cells assessed as reduction in number of migrated cells measured after 24 hrs by crystal violet staining based transwell assay; assay type: functional; settings: dose 5-20 µM
[10] = test system: Mus musculus; assay: Antifibrotic activity against CCL4-induced C57BL/6J mouse hepatic fibrosis model assessed as reduction in alphaSMA expression in liver at 15 to 30 mg/kg, po administered via gavage for 4 weeks starting from 5th week of CCL4 stimulation by qRT-PCR analysis; assay type: functional, organism-based; settings: dose 15-30 mg/kg
[11] = test system: Mus musculus; assay: In vivo inhibition of Smad2 phosphorylation in CCL4-induced C57BL/6J mouse hepatic fibrosis model at 15 to 30 mg/kg, po administered via gavage for 4 weeks starting from 5th week of CCL4 stimulation by Western blot analysis; assay type: functional, organism-based; settings: dose 15-30 mg/kg
[12] = test system: Mus musculus; assay: Antifibrotic activity against BDL-induced C57BL/6J mouse hepatic fibrosis model assessed as reduction in alphaSMA expression in liver at 15 to 30 mg/kg, po administered via gavage starting from 3 days post-BDL by immunohistochemical staining based assay; assay type: functional, organism-based; settings: dose 15-30 mg/kg
[13] = test system: RAW264.7; assay: Antiinflammatory activity in mouse RAW264.7 cells assessed as inhibition of TGFbeta1-induced alpha-SMA mRNA expression at 5 to 20 uM preincubated for 2 hrs […] and measured after 48 hrs by qRT-PCR analysis; assay type: functional, cell-based; settings: dose 5-20 µM, time 50.0 hrs
[14] = test system: Mus musculus; assay: In vivo inhibition of JNK phosphorylation in BDL-induced C57BL/6J mouse hepatic fibrosis model at 15 to 30 mg/kg, po administered via gavage starting from 3 days post-BDL by Western blot analysis; assay type: functional, organism-based; settings: dose 15-30 mg/kg
[15] = molecular target: Mothers against decapentaplegic homolog 2 (Homo sapiens) (UniProt Q15796); assay: Inhibition of TGFbeta1-induced Smad2 phosphorylation in human LX-2 cells preincubated for 2 hrs followed by […] stimulation and measured after 2 hrs by Western blot analysis; assay type: cell-based; settings: dose 5-20 µM, time 4.0 hrs
Sequence of Mothers against decapentaplegic homolog 2 (Homo sapiens) (Q15796 whole entry): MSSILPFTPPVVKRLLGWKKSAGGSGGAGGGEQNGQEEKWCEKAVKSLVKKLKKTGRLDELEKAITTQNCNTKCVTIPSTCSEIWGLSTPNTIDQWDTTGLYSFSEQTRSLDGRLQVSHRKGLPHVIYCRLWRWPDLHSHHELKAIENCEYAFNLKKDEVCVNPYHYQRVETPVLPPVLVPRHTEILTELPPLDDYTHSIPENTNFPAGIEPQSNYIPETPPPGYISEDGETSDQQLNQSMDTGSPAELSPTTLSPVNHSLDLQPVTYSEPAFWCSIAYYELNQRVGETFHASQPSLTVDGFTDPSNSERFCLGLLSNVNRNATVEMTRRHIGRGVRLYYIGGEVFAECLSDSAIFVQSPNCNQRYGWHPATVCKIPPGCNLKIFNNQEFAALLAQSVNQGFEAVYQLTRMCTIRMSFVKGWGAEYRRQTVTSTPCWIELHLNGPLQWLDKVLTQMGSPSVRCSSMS

[16] = test system: Mus musculus; assay: Antifibrotic activity against CCL4-induced C57BL/6J mouse hepatic fibrosis model assessed as reduction in liver edema at 15 to 30 mg/kg, po administered via gavage for 4 weeks starting from 5th week of CCL4 stimulation by H and E staining based histopathological analysis; assay type: functional, organism-based; settings: dose 15-30 mg/kg
[17] = molecular target: Mothers against decapentaplegic homolog 3 (Homo sapiens) (UniProt P84022); assay: Inhibition of TGFbeta1-induced Smad3 phosphorylation in human LX-2 cells preincubated for 2 hrs followed by […] stimulation and measured after 2 hrs by Western blot analysis; assay type: cell-based; settings: dose 5-20 µM, time 4.0 hrs
Sequence of Mothers against decapentaplegic homolog 3 (Homo sapiens) (P84022 2-425 limits assumed): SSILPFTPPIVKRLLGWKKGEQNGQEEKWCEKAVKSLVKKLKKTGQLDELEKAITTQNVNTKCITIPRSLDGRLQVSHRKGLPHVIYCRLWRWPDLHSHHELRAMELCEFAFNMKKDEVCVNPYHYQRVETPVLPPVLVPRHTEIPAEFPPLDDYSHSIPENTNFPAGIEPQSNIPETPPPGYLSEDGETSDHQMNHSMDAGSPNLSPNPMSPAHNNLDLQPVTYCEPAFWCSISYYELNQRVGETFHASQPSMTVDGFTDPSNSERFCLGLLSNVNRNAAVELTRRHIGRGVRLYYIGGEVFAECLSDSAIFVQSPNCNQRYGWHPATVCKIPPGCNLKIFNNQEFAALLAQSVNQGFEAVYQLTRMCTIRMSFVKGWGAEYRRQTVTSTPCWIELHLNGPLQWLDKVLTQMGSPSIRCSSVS

[18] = test system: Mus musculus; assay: In vivo inhibition of p65 phosphorylation in CCL4-induced C57BL/6J mouse hepatic fibrosis model at 15 to 30 mg/kg, po administered via gavage for 4 weeks starting from 5th week of CCL4 stimulation by Western blot analysis; assay type: functional, organism-based; settings: dose 15-30 mg/kg
[19] = test system: Mus musculus; assay: Antifibrotic activity against CCL4-induced C57BL/6J mouse hepatic fibrosis model assessed as reduction in rough surface of liver at 15 to 30 mg/kg, po administered via gavage for 4 weeks starting from 5th week of CCL4 stimulation; assay type: functional, organism-based; settings: dose 15-30 mg/kg
[20] = test system: RAW264.7; assay: Antiinflammatory activity in mouse RAW264.7 cells assessed as inhibition of LPS-induced collagen 1 expression at 5 to 20 uM preincubated for 2 hrs followed by LPS stimulation and measured after 48 hrs by Western blot analysis; assay type: functional, cell-based; settings: dose 5-20 µM, time 50.0 hrs
[21] = test system: Mus musculus; assay: In vivo inhibition of p38 phosphorylation in BDL-induced C57BL/6J mouse hepatic fibrosis model at 15 to 30 mg/kg, po administered via gavage starting from 3 days post-BDL by Western blot analysis; assay type: functional, organism-based; settings: dose 15-30 mg/kg
[22] = test system: RAW264.7; assay: Antiinflammatory activity in mouse RAW264.7 cells assessed as inhibition of LPS-induced alpha-SMA expression at 5 to 20 uM preincubated for 2 hrs followed by LPS stimulation and measured after 48 hrs by Western blot analysis; assay type: functional, cell-based; settings: dose 5-20 µM, time 50.0 hrs
[23] = test system: RAW264.7; assay: Antiinflammatory activity in mouse RAW264.7 cells assessed as inhibition of LPS-induced collagen 1 mRNA expression at 5 to 20 uM preincubated for 2 hrs followed by LPS stimulation and measured after 48 hrs by qRT-PCR analysis; assay type: functional, cell-based; settings: dose 5-20 µM, time 50.0 hrs
[24] = molecular target: c-Jun N-terminal kinase, JNK (Homo sapiens) (UniProt P45983+P53779+P45984); assay: Inhibition of TGFbeta1-induced JNK phosphorylation in human LX-2 cells at 5 to 20 uM preincubated for 2 hrs followed by […] stimulation and measured after 2 hrs by Western blot analysis; assay type: cell-based; settings: dose 5-20 µM, time 4.0 hrs
[25] = test system: Mus musculus; assay: In vivo inhibition of Smad3 phosphorylation in CCL4-induced C57BL/6J mouse hepatic fibrosis model at 15 to 30 mg/kg, po administered via gavage for 4 weeks starting from 5th week of CCL4 stimulation by Western blot analysis; assay type: functional, organism-based; settings: dose 15-30 mg/kg
[26] = test system: Mus musculus; assay: Antifibrotic activity against CCL4-induced C57BL/6J mouse hepatic fibrosis model assessed as reduction in infiltration of inflammatory cells in liver at 15 to 30 mg/kg, po administered via gavage for 4 weeks starting from 5th week of CCL4 stimulation by H and E staining based histopathological analysis; assay type: functional, organism-based; settings: dose 15-30 mg/kg
[27] = test system: Mus musculus; assay: Antifibrotic activity against BDL-induced C57BL/6J mouse hepatic fibrosis model assessed as reduction in alphaSMA expression in liver at 15 to 30 mg/kg, po administered via gavage starting from 3 days post-BDL by Western blot analysis; assay type: functional, organism-based; settings: dose 15-30 mg/kg
[28] = test system: Mus musculus; assay: In vivo inhibition of Smad2 phosphorylation in BDL-induced C57BL/6J mouse hepatic fibrosis model at 15 to 30 mg/kg, po administered via gavage starting from 3 days post-BDL by Western blot analysis; assay type: functional, organism-based; settings: dose 15-30 mg/kg

In the case of `COC(=O)CCC[C@@H]1[C@H]2CCCN3CCC[C@H](CN1C(=O)C(C)c1ccc(-c4ccccc4)c(F)c1)[C@@H]23` (stereo partly drawn), the fold change (FC) [1] is reported as 0.71, the fold change (FC) [2] is reported as 0.86 and the Activity [3] is reported as “Active”. The inhibition [4] was “inactive”, the inhibition [5] was “Active” and the Activity [6] was “Active”. The inhibition [7] was “inactive”, the IC50 at 48 h [8] was 38.2 µM and the inhibition [9] was “Dose-dependent-effect”. For the same compound, the Activity [10] was “Active”, the inhibition [11] was “Active” and the Activity [12] was “Active”. For the same compound, the inhibition [13] was “Active”, the inhibition [14] was “inactive” and the inhibition [15] was “Dose-dependent-effect”. For the same compound, the Activity [16] was “Active”, the inhibition [17] was “Dose-dependent-effect” and the inhibition [18] was “Active”. The Activity [19] was “Active; Significant Alleviation Observed”, the inhibition [20] was “Active” and the inhibition [21] was “inactive”. The inhibition [22] was “Active”, the inhibition [23] was “Active” and the inhibition [24] was “inactive”. For the same compound, the inhibition [25] was “Active”, the Activity [26] was “Active” and the Activity [27] was “Active”. The inhibition [28] was “Active”.
